Experiments:
Type in all cases: cell-based
[1] = test system: Bacillus strain secreting inactive 10R protease (S143A) (SOL218); experiment: Plate growth of Bacillus secreting inactive 10R protease on LB agar with MGMM and CMA; details: LB agar with MGMM, 37° C. overnight
Text: (§1) We wanted to find a concentration of carboxymethoxylhydroxylamine (CMA) that allows only protease-secreting Bacillus colonies to grow in the presence of the small peptide met-gly-met-met (MGMM). CMA inhibits the methionine synthesis in Bacillus cells, which severely hampers their growth. However, in the presence of MGMM, protease-secreting Bacillus cells can grow on CMA containing media. Secreted proteases degrade the MGMM peptide thereby releasing free methionine residues, which are taken up by the protese-secreting Bacillus cells and used for protein synthesis.
(§2) 500 ml LB agar was melted and placed in an incubator until the agar reached 60° C. 5 ml met-gly-met-met (MGMM, Sigma M4786-250MG) (5 mg/ml) and 300 microliter 1% chloramphenicol (in 70% ethanol) was added to the agar.
(§3) 4×25 ml media was transferred with a 25 ml Stripette™ to clean 25 ml Nunc™ containers. Different amounts of CMA (Aldrich C13408-1 g) were added to the media as indicated in the scheme below. All 25 ml media was poured into 9 cm petri dishes and dried in a clean bench; except for the “6×CMA on the plate” where 25 ml media was poured on a 9 cm petridish and dried and 600 microliter CMA (0.56 mg/ml) was spread on the plate afterwards.
(§4) The two micro-organisms were streaked on the 6 different types of plates. All plates were incubated upside down at 37° C. overnight.

[2] = test system: Bacillus strain secreting a wildtype protease denoted '10R' (SOL000); experiment: Plate growth of Bacillus secreting wildtype 10R protease on LB agar with MGMM and CMA; details: for Growth on the plate, 10R WT (SOL000): LB agar with MGMM, 37° C. overnight
Text: as §1, §2, §3, §4

[3] = test system: Saccharomyces cerevisiae JG 169; experiment: Yeast growth on triglyceride (olive oil) plates containing cerulenin; details: 5 mg cerulenin per approx. 510 ml SC-ura agar with olive oil; pENI4158 (lipase) vs pENI3659 (control) transformants
Protocol: Plasmids pENI3659 (control) and pENi4158 (with lipase gene) were transformed into the yeast strain Saccharomyces cerevisiae JG 169 (MAT-alpha; ura 3-52; leu 2-3, 112; his 3-D200; pep 4-113; prc1::HIS3; prb1::LEU2). The transformed yeast was streaked onto plates containing cerulenine and olive oil.
To 450 ml SC-ura-basic agar was added 50 ml 20% glucose and 10 ml olive oil. An UltraTurax™ […] (IKA Labortechnik, Germany) was used to disperse the olive oil. 5 mg cerulenin dissolve in 1 ml ethanol was added and 500 microliter ampicillin (100 mg/ml)). This mix was poured into […] 9 cm petri dishes.
SC-ura-basic agar: 7.5 g Yeast Nitrogen Base without amino acids, 11.3 g Bernstein, 6.8 g NaOH, 5.6 g casamino acids, 0.1 g L-tryptophan, 20 g agar in total of 900 ml water.

[4] = 5xCMA in the plate, 11.2 mg/L CMA
[5] = 6xCMA in the plate, 13.4 mg/L CMA
[6] = 6xCMA on the plate (spread on dried plate), 13.4 mg/L CMA
[7] = 7xCMA in the plate, 15.7 mg/L CMA
[8] = 8xCMA in the plate, 17.9 mg/L CMA

| Compound | Growth on the plate, 10R inactive (SOL218) [1, 4] | Growth on the plate, 10R inactive (SOL218) [1, 5] | Growth on the plate, 10R inactive (SOL218) [1, 6] | Growth on the plate, 10R inactive (SOL218) [1, 7] | Growth on the plate, 10R inactive (SOL218) [1, 8] | Growth on the plate, 10R WT (SOL000) [2, 4] | Growth on the plate, 10R WT (SOL000) [2, 5] | Growth on the plate, 10R WT (SOL000) [2, 6] | Growth on the plate, 10R WT (SOL000) [2, 7] | Growth on the plate, 10R WT (SOL000) [2, 8] | Growth of Bacillus transformant cells which secrete active 10R protease, versus those that do not ([2]; LB agar with 11.2 mg/L CMA as well as MGMM in the plate, summary of Table 3) | Growth of transformed yeast on the triglyceride plates in the presence of cerulinine [3] |
| --- | --- | --- | --- | --- | --- | --- | --- | --- | --- | --- | --- | --- |
| O=C(O)CONO [CMA, carboxymethoxylhydroxylamine] | No | No | No | No | No | Yes | No | No | No | No | only those can grow | – |
| C/C=C/C/C=C/CCC(=O)[C@H]1O[C@H]1C(N)=O [cerulinine, cerulenin] | – | – | – | – | – | – | – | – | – | – | – | Only yeast cells transformed with pENI4158, which express active lipase, were able to grow |

Reference: US20100267067A1, “Synthase Inhibitor Screening Method” (priority 2007, published 2010)
